Molecular target: T1, Androgen Receptor (AR) in the LNCaP prostate carcinoma cell line (Homo sapiens, UniProt P10275, T878A)
T1 construct: cell based immuno-fluorescence assay using the LNCaP prostate epithelial cell line; host or cells: LNCaP clone FGC
T1 sequence (P10275 1-920 T878A): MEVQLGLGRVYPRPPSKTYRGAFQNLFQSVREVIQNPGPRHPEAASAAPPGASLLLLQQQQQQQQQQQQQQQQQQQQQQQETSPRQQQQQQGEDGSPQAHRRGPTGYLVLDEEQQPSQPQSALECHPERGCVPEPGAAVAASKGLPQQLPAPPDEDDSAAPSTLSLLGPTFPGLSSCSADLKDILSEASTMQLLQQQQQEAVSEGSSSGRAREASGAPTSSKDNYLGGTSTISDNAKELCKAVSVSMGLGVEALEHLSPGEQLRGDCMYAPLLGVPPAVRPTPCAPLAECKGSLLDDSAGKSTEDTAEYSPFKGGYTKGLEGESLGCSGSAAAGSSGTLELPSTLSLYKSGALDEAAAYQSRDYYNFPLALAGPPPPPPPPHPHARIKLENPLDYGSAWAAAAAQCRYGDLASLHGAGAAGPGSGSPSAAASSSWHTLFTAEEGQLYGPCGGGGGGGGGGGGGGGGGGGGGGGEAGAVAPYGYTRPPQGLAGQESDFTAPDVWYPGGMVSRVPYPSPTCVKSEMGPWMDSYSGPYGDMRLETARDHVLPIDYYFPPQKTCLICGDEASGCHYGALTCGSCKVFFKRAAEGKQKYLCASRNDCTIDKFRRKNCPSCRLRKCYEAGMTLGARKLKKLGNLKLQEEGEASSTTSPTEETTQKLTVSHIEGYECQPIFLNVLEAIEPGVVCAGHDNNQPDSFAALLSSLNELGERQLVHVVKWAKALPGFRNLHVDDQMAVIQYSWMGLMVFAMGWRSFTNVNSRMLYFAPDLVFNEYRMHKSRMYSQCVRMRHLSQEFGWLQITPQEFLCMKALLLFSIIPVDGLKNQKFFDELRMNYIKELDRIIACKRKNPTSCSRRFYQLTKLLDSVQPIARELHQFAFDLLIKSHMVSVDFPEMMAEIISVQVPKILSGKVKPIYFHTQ
Assay: LNCaP Androgen Receptor Down-Regulation Cell Assay (immunofluorescence end point)
Type: cell-based
Settings: LNCaP cells, compound incubation 20-22 hours, concentration giving 50% reduction of the AR signal
Procedure: The ability of compounds to reduce Androgen Receptor (AR) numbers was assessed in a cell based immuno-fluorescence assay using the LNCaP prostate epithelial cell line.
This immunofluorescence end point assay measures the ability of a test compound to down-regulate and reduce measured levels of the AR in the LNCaP prostate carcinoma cell line (LNCaP clone FGC (CRL-1740) obtained from the American Type Culture Collection (ATCC)).
LNCaP cells were cultured in Growth Medium (phenol red free Roswell Park Memorial Institute (RPMI) 1640 (Invitrogen Code no. 11835-063) containing 2 mM L-Glutamine (Invitrogen Code no. 25030-024) and 1% (v/v) Penicillin/Streptomycin (10000 units/ml Penicillin and 10000 μg/ml of Streptomycin utilising penicillin G (sodium salt) and streptomycin sulphate: prepared in normal saline, Invitrogen Code no. 15140122) and 10% (v/v) foetal bovine serum (FBS)) in a 5% CO2 air incubator at 37° C. Cells for assay were harvested from T175 stock flasks by washing once in PBS (phosphate buffered saline, pH 7.4) (Invitrogen Code no. 14190-094) and harvested using 5 mls of 1× Trypsin/ethylaminediaminetetraacetic acid (EDTA) (10× Trypsin-EDTA, 5.0 g/L Trypsin, 2.0 g/L of EDTA.4Na and 8.5 g/L of NaCl, without Phenol Red, Invitrogen Code no. 15400-054) diluted in PBS solution. A 5 ml volume of Growth Medium was added to each flask (as above except that 5% (v/v) charcoal stripped FBS (HyClone Code no. SH30068.03) was included instead of 10% (v/v) FBS). Cells were syringed at least twice using a sterile 18 G×1.5″ (1.2×40 mm) broad gauge needle and cell density was measured using a haemocytometer. Cells were further diluted in Growth Medium plus 5% (v/v) charcoal stripped FBS and seeded at a density of 6.5×10^3 cells per well (in 90 ul) into transparent, black, tissue culture treated 96 well plates (Packard, No. 6005182).
Test data reported herein was generated using two different compounds preparation and dosing methods. In method (1) a 10 mM compound stock solution in 100% (v/v) DMSO was serially diluted in 4-fold steps in 100% (v/v) DMSO using a Thermo Scientific Matrix SerialMate. The diluted compounds were then further diluted 1 in 30 in assay media using a Thermo Scientific Matrix PlateMate and a 10 μl aliquot of this dilution was dosed to cells manually using a multi-channel pipette. In method (2) starting with a 10 mM compound stock solution, the Labcyte Echo 550 was used to generate a compound concentration response set diluted in 30 μl of assay media. The Echo 550 is a liquid handler that uses acoustic technology to perform direct microplate-to-microplate transfers of DMSO compound solutions. The system can be programmed to transfer volumes as low as 2.5 nL in multiple increments between microplates and in so doing generates a serial dilution of compound which is then back-filled to normalise the DMSO concentration across the dilution range. A 10 μl volume of diluted compound is then dosed to cells using a Thermo Scientific Matrix PlateMate.
Plates were incubated overnight at 37° C., 5% CO2. Wells were then dosed with compound prepared by one of the 2 methods above and further incubated for 20-22 hours at 37° C., 5% CO2. Plates were fixed by the addition of 20 μl of 10% (v/v) formaldehyde solution (in PBS) to each well (final formaldehyde conc.=1.67% (v/v)) and left at room temperature for 10 mins. This fixative solution was removed and cells were washed with 250 μl of PBS/0.05% (v/v) Tween 20 (PBST) using an automated plate washer. This process was then repeated twice more.
Immunostaining was performed at room temperature. Cells were permeabilised by the addition of 35 μl of PBS containing 0.5% Tween 20 and incubated for 1 hour at room temperature. Permeabilisation solution was removed and cells were washed with 250 μl of PBST using an automated plate washer. This process was then repeated twice more. […]

| SMILES | IC50 [µM] |
| --- | --- |
| Fc1cccc(CN2CCN(C3=Nn4c(nnc4C(F)(F)F)CC3)CC2)c1F [Example 9, 6-[4-(2,3-difluorobenzyl)piperazin-1-yl]-3-(trifluoromethyl)-7,8-dihydro[1,2,4]triazolo[4,3-b]pyridazine] | 4.1 |
| COCCN(C)C(=O)COc1ccc(C2CCN(C3=Nn4c(nnc4C(F)(F)F)CC3)CC2)cc1 [Example 19, N-(2-methoxyethyl)-N-methyl-2-(4-{1-[3-(trifluoromethyl)-7,8-dihydro[1,2,4]triazolo[4,3-b]pyridazin-6-yl]piperidin-4-yl}phenoxy)acetamide] | 2.9 |
| FC(F)(F)c1nnc2n1N=C(N1CC=C(c3c[nH]c4ncccc34)CC1)CC2 [Example 17, 6-[4-(1H-pyrrolo[2,3-b]pyridin-3-yl)-3,6-dihydropyridin-1(2H)-yl]-3-(trifluoromethyl)-7,8-dihydro[1,2,4]triazolo[4,3-b]pyridazine] | 4.4 |
| Fc1ccc(CN2CCN(C3=Nn4c(nnc4C(F)(F)F)CC3)CC2)cc1 [Example 1, 6-[4-(4-fluorobenzyl)piperazin-1-yl]-3-(trifluoromethyl)-7,8-dihydro[1,2,4]triazolo[4,3-b]pyridazine] | 6 |
| Cn1nccc1CCOc1ccc(N2CCN(C3=Nn4c(nnc4C(F)(F)F)CC3)CC2)cc1 [Example 16, 6-[4-[4-[2-(1-methyl-1H-pyrazol-5-yl)ethoxy]phenyl]piperazin-1-yl]-3-(trifluoromethyl)-7,8-dihydro[1,2,4]triazolo[4,3-b]pyridazine] | 3.2 |

Now from value to molecule:

| IC50 [µM] | SMILES |
| --- | --- |
| 12 | CC(=O)N1CCN(CCOc2ccc(C3(O)CCN(C4=Nn5c(nnc5C(F)(F)F)CC4)CC3)cc2)CC1 [Example 45, 4-{4-[2-(4-acetylpiperazin-1-yl)ethoxy]phenyl}-1-[3-(trifluoromethyl)-7,8-dihydro[1,2,4]triazolo[4,3-b]pyridazin-6-yl]piperidin-4-ol] |
| 1.5 | CCN1CCN(CCOc2ccc(C3CCN(C4=Nn5c(nnc5C(F)(F)F)CC4)CC3)cc2)CC1=O [Example 46, 1-ethyl-4-[2-(4-{1-[3-(trifluoromethyl)-7,8-dihydro[1,2,4]triazolo[4,3-b]pyridazin-6-yl]piperidin-4-yl}phenoxy)ethyl]piperazin-2-one] |
| 0.46 | CCCCN(C)C(=O)COc1ccc(C2CCN(C3=Nn4c(nnc4C(F)(F)F)CC3)CC2)cc1 [Example 22, N-butyl-N-methyl-2-(4-{1-[3-(trifluoromethyl)-7,8-dihydro[1,2,4]triazolo[4,3-b]pyridazin-6-yl]piperidin-4-yl}phenoxy)acetamide] |
| 1.5 | CS(=O)(=O)N1CCN(CCOc2ccc(C3CCN(C4=Nn5c(nnc5C(F)(F)F)CC4)CC3)cc2)CC1 [Example 26, 6-[4-(4-{2-[4-(methylsulfonyl)piperazin-1-yl]ethoxy}phenyl)piperidin-1-yl]-3-(trifluoromethyl)-7,8-dihydro[1,2,4]triazolo[4,3-b]pyridazine] |
| 0.38 | C[C@H](COc1ccc(C2CCN(C3=Nn4c(nnc4C(F)(F)F)CC3)CC2)cc1)N1CCN(C)C(=O)C1 (single isomer, unassigned) [Example 56] |
| 0.66 | CCc1nccn1CCOc1ccc(C2CCN(C3=Nn4c(nnc4C(F)(F)F)CC3)CC2)cc1 [Example 42, 6-(4-{4-[2-(2-ethyl-1H-imidazol-1-yl)ethoxy]phenyl}piperidin-1-yl)-3-(trifluormethyl)-7,8-dihydro[1,2,4]triazolo[4,3-b]pyridazine] |
| 1 | CS(=O)(=O)N1CCN(CCCOc2ccc(C3CCN(C4=Nn5c(nnc5C(F)(F)F)CC4)CC3)cc2)CC1 [Example 28, 6-[4-(4-{3-[4-(methylsulfonyl)piperazin-1-yl]propoxy}phenyl)piperidin-1-yl]-3-(trifluoromethyl)-7,8-dihydro[1,2,4]triazolo[4,3-b]pyridazine] |

Source: US8258140B2 (Astrazeneca AB, priority 2009, dated 2012)
